In EP2669288A1, “New monosaccharide derivatives and biological applications thereof” (L[…], priority 2012, dated 2013):
pIC50: −log10 of the molar value. Counter-ions that a name gives are not always drawn.

Key:
[1] = target: HldE of E. coli (Escherichia coli, UniProt P76658); test: Inhibition of the enzymatic activity of HldE-K (luminescent assay on kinase activity); type: biochemical; conditions: 3nM HldE, 0.2µM β-heptose-7-phosphate, 0.2µM ATP; 30min pre-incubation
Experimental: Inhibition of the enzymatic activity of HldE-K (luminescent assay on kinase activity):
The assay buffer "AB" contained 50 mM Hepes pH7.5, 1 mM MnCl2, 25 mM KCl, 0.012% Triton-X100 and 1mm dithiothreitol (DTT) and 0.1µM Myelin basic protein (MBP). The following components were added in a white polystyrene Costar plate up to a final volume of 30µL: 10µL inhibitor dissolved in DMSO/water 50/50, and 20µL HldE of E. coli in AB. After 30min of pre-incubation at room temperature, 30µL of Substrates mix in AB were added in each well to a final volume of 60µL. This reaction mixture was then composed of 3nM HldE, 0.2µM β-heptose-7-phosphate (custom synthesis) and 0.2µM ATP (Sigma) in assay buffer. After 30min of incubation at room temperature, 200µL of the revelation mix were added to a final volume of 260µL, including the following constituents at the respective final concentrations: 5000 light units/ml luciferase (Sigma), 30µM D-luciferin (Sigma), 100µM N-acetylcysteamine (Aldrich). Luminescence intensity was immediately measured on Luminoskan (Thermofischer) and converted into inhibition percentages. For IC50 determinations, the inhibitor was tested at 6 to 10 different concentrations, and the related inhibitions were fitted to a classical Langmuir equilibrium model using XLFIT (IDBS).

[2] = target: GmhA of E. coli (Escherichia coli, UniProt P63224); test: Inhibition of the enzymatic activity of GmhA (luminescent assay); type: biochemical; conditions: 2nM GmhA, 3µM sedoheptulose-7-phosphate, 3µM ATP, 50nM HldE; 30min pre-incubation
Experimental: Inhibition of the enzymatic activity of GmhA (luminescent assay):
The assay buffer "AB" contained 50 mM Hepes pH7.5, 1 mM MnCl2, 25 mM KCl, 0.012% Triton-X100 and 1mm dithiothreitol (DTT) and 0.1µM Myelin basic protein (MBP). The following components were added in a white polystyrene Costar plate up to a final volume of 30µL: 10µL inhibitor dissolved in DMSO/water 50/50, and 20µL GmhA of E. coli in AB. After 30min of pre-incubation at room temperature, 30µL of Substrates mix in AB were added in each well to a final volume of 60µL. This reaction mixture was then composed of 2nM GmhA, 3µM sedoheptulose-7-phosphate (Sigma), 3µM ATP (Sigma) and 50nM HldE of E. coli in assay buffer. After 30min of incubation at room temperature, 100µL of the revelation mix were added to a final volume of 160µL, including the following constituents at the respective final concentrations: 10000 light units/ml luciferase (Sigma), 20µM D-luciferin (Sigma), 100µM N-acetylcysteamine (Aldrich). Luminescence intensity was immediately measured on Luminoskan (Thermofischer) and converted into inhibition percentages. For IC50 determinations, the inhibitor was tested at 6 to 10 different concentrations, and the related inhibitions were fitted to a classical langmuir equilibrium model using XLFIT (IDBS).

[3] = system: E. coli C7 LPS heptosylation; test: Inhibition of E. coli C7 LPS biosynthesis (LPS gel electrophoresis, silver staining); type: cell-based, E. coli C7 (018:K1:H7)
Experimental: Inhibition of E. coli C7 (018:K1:H7) LPS biosynthesis:
The inner core contains several heptose residues. An inhibitor of the LPS heptosylation pathway should therefore reduce dramatically the size of LPS from full-length to the so-called 'Re-LPS' limited to lipid A branched with 2 Kdo residues.
Bacterial culture: The effect of heptosylation inhibitors on E. coli LPS was assessed as described below. The compounds to be tested were prepared in deionised water/DMSO (50/50) solutions and added (25µL) in sterile culture microtubes. The strain used in this study was E. coli C7 (018:K1:H7). The bacteria were isolated on tryptic soy agar (TSA) over-night. […]
LPS extraction: Bacterial cultures were normalized via OD determination, pelleted and washed with 1ml Phosphate-Buffer-Saline (PBS). […] The resulting supernatant, containing LPS was finally analysed by SDS-PAGE electrophoresis. […]
Silver staining: Gels were incubated overnight in 5% acetic acid/40% ethanol/deionised water, treated by 1% periodic acid/5% acetic acid for 15min, washed 4 times for 10min in deionised water and finally incubated for 18min in the dark in a silver nitrate solution composed of 56ml NaOH 0.1N, 4ml ammoniac 33%, 45ml AgN03 5% (Tsai and Frasch) and 195 ml deionised water. […] Gels were finally washed in deionised water, numerized with a Samsung PL51 camera and analysed by ImageJ software. […]

[4] = system: E. coli C7 (018:K1:H7); test: Killing of the bacteria in culture with compound; type: cell-based; conditions: at 1 mM
Experimental: Bacterial culture: The effect of heptosylation inhibitors on E. coli LPS was assessed as described below. The compounds to be tested were prepared in deionised water/DMSO (50/50) solutions and added (25µL) in sterile culture microtubes. The strain used in this study was E. coli C7 (018:K1:H7). The bacteria were isolated on tryptic soy agar (TSA) over-night. Isolated colonies were cultured in 10ml of Luria-Bertani medium (LB) at 37°C up to an optical density of typically 0.15. These exponentially growing bacteria were finally diluted to 5e5 cfu/ml and added in each well (225µL) for incubation with the compounds at 37°C for approximately 5 hours, up to an optical density of ≈0.2-0.4. Some test compounds e.g. phospho-sugars required Glucose-6-Phosphate (G6P, from Sigma) to be added in the culture medium in order to activate their active transport into the bacterial cytosol via the phospho-sugar transporter UhpT. This was achieved by adding in the culture tube 2.5µL of a 10mM water solution of G6P (100µM final concentration).

Chain of GmhA of E. coli (P63224 whole entry): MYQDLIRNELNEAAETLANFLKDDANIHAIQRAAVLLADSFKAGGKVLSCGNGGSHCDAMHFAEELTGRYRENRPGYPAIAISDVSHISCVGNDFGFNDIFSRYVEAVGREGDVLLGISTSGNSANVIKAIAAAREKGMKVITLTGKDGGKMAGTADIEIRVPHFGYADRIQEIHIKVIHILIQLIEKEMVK
Chain of HldE of E. coli (P76658 whole entry): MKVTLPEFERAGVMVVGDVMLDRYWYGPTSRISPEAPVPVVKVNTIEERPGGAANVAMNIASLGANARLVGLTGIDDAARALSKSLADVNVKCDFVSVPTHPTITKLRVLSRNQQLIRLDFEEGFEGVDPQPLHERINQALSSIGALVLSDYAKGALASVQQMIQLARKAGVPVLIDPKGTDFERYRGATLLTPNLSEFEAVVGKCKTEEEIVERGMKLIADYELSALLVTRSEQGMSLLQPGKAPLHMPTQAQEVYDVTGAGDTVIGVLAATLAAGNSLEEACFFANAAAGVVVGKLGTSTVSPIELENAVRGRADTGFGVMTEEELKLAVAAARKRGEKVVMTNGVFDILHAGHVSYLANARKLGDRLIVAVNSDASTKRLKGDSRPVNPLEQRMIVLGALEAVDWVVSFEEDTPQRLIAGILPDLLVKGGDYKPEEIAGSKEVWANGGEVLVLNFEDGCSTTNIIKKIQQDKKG

| Molecule | pIC50 [1] | pIC50 [2] | reducing LPS heptosylation ([3]; in absence of G6P) | inhibition of E. coli C7 LPS heptosylation ([3]; in the presence of 100 µM G6P, at concentrations < 1 mM) | killing of the bacteria [4] |
| --- | --- | --- | --- | --- | --- |
| 7-O-phosphate-D-glycero-D-gluco-2-deoxy-2-amino-1-deoxy-heptopyranoside hydrochloride [Example 1] | > 4.00 | > 4.00 | – | – | – |
| N[C@H]1C(O)O[C@H]([C@H](O)COP(=O)(O)O)[C@@H](O)[C@@H]1O (stereo partly drawn) [Example 2, 7-O-phosphate-D-glycero-D-gluco-2-deoxy-2-amino-heptopyranoside hydrochloride] | > 4.00 | > 4.00 | inactive | at least 50% | did not kill the bacteria |
